Common to all, as to assay: Fluorogenic enzyme assay (Example 5)
What all share (assay type): biochemical

For one experiment, the target named is urokinase (u-PA) (Homo sapiens, UniProt P00749). The conditions noted are these: enzyme 100 nM, substrate 1 μM. How it is done:
(§1) Enzyme assays (except factor VIIa assays, see below) were conducted in 20 mM Tris, 150 mM NaCl, pH 7.4 (TBS) at room temperature (22° C.). The final volume for all reaction mixtures was 2.0 ml. Fluorogenic substrates were dissolved in DMSO to a stock concentration of 10 mM. The 10 mM stock solution was diluted in TBS to the final working concentration prior to all assays. Enzyme was added to mixtures containing buffer components and substrate and the initial rate of substrate hydrolysis was measured as the change in fluorescent intensity over time, corresponding to the generation of the particular 6-amino-1-naphthalenesulfonamide fluorophore from the provided substrate. Quantitation of substrate hydrolysis was accomplished by establishing a standard curve from the appropriate fluorescent moiety. Fluorescence was monitored (continuously or discontinuously) using a Perkin Elmer fluorescence spectrophotometer, model MPF-44A, equipped with a standard chart recorder. The fluorophore was detected using monochrometers set at an excitation wavelength of 352 nm and an emission wavelength of 470 nm. Light scattering artifacts were minimized using a 399 nm cut off filter in the emission light beam.
(§2) The kinetic constants of substrate hydrolysis were determined using the non-linear least squares regression analysis program ENZFITTER (Cambridge, UK). This program was used to iteratively fit initial rates of substrate hydrolysis to the Michaelis-Menten equation and the kinetic constants of substrate hydrolysis (Km) and (kcat) were calculated.

A further experiment addresses plasmin (Plm) (Homo sapiens, UniProt P00747). The conditions noted are these: enzyme 100 nM, substrate 1 μM; for Time (min) for 5% hydrolysis, Plm: footnote b. How it is done: as §1, §2
Experiment [1] concerns the target tissue plasminogen activator (t-PA) (Homo sapiens, UniProt P00750). The conditions noted are these: enzyme 100 nM, substrate 1 μM; for hydrolysis, t-PA (symbol N.D.): after 24 hrs. How it is done: as §1, §2
A further experiment concerns the target factor Xa (Homo sapiens, UniProt P00742). The conditions noted are these: for Km / kcat /Km, Xa / kcat, Xa: Table 7; for Time (min) for 10% hydrolysis, Xa: enzyme 100 nM, substrate 1 μM. How it is done: as §1, §2
The next experiment addresses T1, thrombin (IIa) (Homo sapiens, UniProt P00734).
T1 construct: 0.5 nM human thrombin (IIa)
The arrangement: key to Hydrolysis kinetic constants, IIa (symbol b): Slow substrate hydrolysis, no kinetic constants calculated. The conditions noted are these: for Time (min) for 10% hydrolysis, IIa: enzyme 100 nM, substrate 1 μM. How it is done:
as §1, §2

Experiment [2] deals with activated protein C (APC) (Homo sapiens, UniProt P04070). Set-up: key to Hydrolysis kinetic constants, APC (symbol b): Slow substrate hydrolysis, no kinetic constants calculated. The conditions noted are these: for Hydrolysis kinetic constants, APC (symbol b) / Km / kcat /Km, APC / kcat, APC: Table 7; for Time (min) for 10% hydrolysis, APC: enzyme 100 nM, substrate 1 μM. How it is done: as §1, §2
activated protein C (APC), sequence (P04070 212-461 limits assumed): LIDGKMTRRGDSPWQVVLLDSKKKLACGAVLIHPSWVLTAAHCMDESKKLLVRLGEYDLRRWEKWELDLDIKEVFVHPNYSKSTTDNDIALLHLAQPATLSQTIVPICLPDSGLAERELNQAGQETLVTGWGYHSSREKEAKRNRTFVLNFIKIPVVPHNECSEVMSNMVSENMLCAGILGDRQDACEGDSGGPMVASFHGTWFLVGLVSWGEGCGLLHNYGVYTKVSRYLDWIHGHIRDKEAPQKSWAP
activated protein C (APC), sequence (P04070 43-197 limits assumed): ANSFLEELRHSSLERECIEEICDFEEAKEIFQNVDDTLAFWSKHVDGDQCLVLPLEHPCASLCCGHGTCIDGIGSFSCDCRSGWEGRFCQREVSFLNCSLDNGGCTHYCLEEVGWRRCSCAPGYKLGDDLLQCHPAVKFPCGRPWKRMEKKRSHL

factor Xa, sequence (P00742 235-488 limits assumed): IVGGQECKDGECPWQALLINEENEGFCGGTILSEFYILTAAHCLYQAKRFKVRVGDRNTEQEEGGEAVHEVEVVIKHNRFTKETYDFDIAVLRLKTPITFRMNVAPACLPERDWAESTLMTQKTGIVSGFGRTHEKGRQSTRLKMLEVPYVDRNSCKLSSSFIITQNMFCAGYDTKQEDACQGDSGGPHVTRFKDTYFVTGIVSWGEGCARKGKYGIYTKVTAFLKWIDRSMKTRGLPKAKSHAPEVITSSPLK
factor Xa, sequence (P00742 41-179 limits assumed): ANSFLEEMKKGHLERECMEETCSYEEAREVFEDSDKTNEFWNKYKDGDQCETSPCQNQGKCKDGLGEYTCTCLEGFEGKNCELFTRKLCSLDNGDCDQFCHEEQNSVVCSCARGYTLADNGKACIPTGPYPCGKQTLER
tissue plasminogen activator (t-PA), sequence (P00750 36-562, species assumed): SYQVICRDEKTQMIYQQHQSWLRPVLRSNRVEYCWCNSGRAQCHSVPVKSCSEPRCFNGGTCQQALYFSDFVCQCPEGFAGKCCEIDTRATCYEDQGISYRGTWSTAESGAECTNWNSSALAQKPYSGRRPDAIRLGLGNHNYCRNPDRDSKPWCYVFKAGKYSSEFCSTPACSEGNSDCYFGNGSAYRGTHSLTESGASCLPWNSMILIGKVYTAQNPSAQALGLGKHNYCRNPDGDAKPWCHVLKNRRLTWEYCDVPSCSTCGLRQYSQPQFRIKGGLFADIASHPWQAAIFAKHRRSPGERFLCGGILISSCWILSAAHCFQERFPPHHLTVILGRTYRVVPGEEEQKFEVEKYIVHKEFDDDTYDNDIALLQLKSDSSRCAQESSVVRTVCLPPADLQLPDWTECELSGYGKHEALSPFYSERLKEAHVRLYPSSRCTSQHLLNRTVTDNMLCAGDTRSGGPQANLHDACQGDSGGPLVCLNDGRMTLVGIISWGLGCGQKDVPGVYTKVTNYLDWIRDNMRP
plasmin (Plm), sequence (P00747 581-810 limits assumed, species assumed): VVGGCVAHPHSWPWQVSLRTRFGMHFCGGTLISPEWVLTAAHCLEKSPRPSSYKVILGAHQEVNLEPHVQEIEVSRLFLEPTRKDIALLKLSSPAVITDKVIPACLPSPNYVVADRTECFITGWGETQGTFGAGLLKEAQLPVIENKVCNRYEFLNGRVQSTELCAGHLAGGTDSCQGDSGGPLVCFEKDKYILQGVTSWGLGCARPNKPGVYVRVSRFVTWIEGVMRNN
plasmin (Plm), sequence (P00747 97-580 limits assumed, species assumed): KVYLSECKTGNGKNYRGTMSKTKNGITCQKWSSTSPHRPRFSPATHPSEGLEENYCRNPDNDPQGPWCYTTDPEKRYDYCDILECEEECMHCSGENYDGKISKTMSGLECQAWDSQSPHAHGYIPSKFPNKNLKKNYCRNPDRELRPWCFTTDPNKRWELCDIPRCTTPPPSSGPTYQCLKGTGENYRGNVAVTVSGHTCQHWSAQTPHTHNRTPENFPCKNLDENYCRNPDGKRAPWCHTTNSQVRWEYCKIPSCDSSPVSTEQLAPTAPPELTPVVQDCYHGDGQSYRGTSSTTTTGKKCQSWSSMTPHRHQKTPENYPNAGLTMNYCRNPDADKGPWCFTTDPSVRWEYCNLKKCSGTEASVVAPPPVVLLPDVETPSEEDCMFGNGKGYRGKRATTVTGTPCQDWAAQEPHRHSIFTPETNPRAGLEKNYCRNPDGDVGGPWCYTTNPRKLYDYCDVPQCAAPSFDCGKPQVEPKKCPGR

As for `Br.CNS(=O)(=O)c1cccc2cc(NC(=O)[C@H](CCCNC(=N)N)NC(=O)OCc3ccccc3)ccc12` [(N^α -Z)ArgANSNR1 R2; H; CH3], on urokinase (u-PA), the “Time (min) for 10% hydrolysis, u-PA” value is listed as 660 min. Moreover, the “Time (min) for 5% hydrolysis, Plm” value on plasmin (Plm) is 1620 min. Besides, the “Time (min) for 5% hydrolysis, t-PA” value in experiment [1] (footnote b) worked out at 1280 min. Besides, at factor Xa, the Km was 160 µM; the “kcat /Km, Xa” value is 714 M⁻¹ s⁻¹; the “kcat, Xa” value is 0.11 s⁻¹; the “Time (min) for 10% hydrolysis, Xa” value is listed as 25 min. Further, on thrombin (IIa) (Table 7), the Km was 62.5 µM; the “kcat /Km, IIa” value is 640 M⁻¹ s⁻¹; the “kcat, IIa” value was 0.04 s⁻¹. For the same molecule, the “Time (min) for 10% hydrolysis, IIa” value on thrombin (IIa) is 38 min. Further, in experiment [2], the “Hydrolysis kinetic constants, APC (symbol b)” value is “b” and the “Time (min) for 10% hydrolysis, APC” value is 120 min.

For `Br.N=C(N)NCCC[C@H](NC(=O)OCc1ccccc1)C(=O)Nc1ccc2c(S(=O)(=O)NCc3ccccc3)cccc2c1` [(N^α -Z)ArgANSNR1 R2; H; benzyl], the “Time (min) for 10% hydrolysis, u-PA” value on urokinase (u-PA) is on record as 19 min. Moreover, the “Time (min) for 10% hydrolysis, Plm” value on plasmin (Plm) was determined as 330 min. For the same molecule, the “Time (min) for 10% hydrolysis, t-PA” value in experiment [1] turned out to be 510 min. Also, on factor Xa, the Km was 213 µM; the “kcat /Km, Xa” value is 198 M⁻¹ s⁻¹; the “kcat, Xa” value was 0.04 s⁻¹; the “Time (min) for 10% hydrolysis, Xa” value is recorded as 46 min. In addition, at thrombin (IIa) (Table 7), the Km was 41 µM; the “kcat /Km, IIa” value is 1680 M⁻¹ s⁻¹; the “kcat, IIa” value was 0.07 s⁻¹. In addition, at thrombin (IIa), the “Time (min) for 10% hydrolysis, IIa” value was 17 min. In experiment [2], the Km was 218 µM; the “kcat /Km, APC” value is 1050 M⁻¹ s⁻¹; the “kcat, APC” value is 0.23 s⁻¹; the “Time (min) for 10% hydrolysis, APC” value is on record as 12 min.

Regarding `Br.N=C(N)NCCC[C@H](NC(=O)OCc1ccccc1)C(=O)Nc1ccc2c(S(=O)(=O)NC3CCCCC3)cccc2c1` [(N^α -Z)ArgANSNR1 R2; H; cyclo-C6 H11], the “Time (min) for 5% hydrolysis, u-PA” value on urokinase (u-PA) (footnote b) is given as 1620 min. Moreover, the “Time (min) for 10% hydrolysis, Plm” value at plasmin (Plm) is on record as 1140 min. Besides, the “hydrolysis, t-PA (symbol N.D.)” value in experiment [1] is “N.D. (Less than 5% hydrolysis after 24 hrs.)”. Moreover, on factor Xa, the Km is 51.8 µM; the “kcat /Km, Xa” value was 633 M⁻¹ s⁻¹; the “kcat, Xa” value was 0.03 s⁻¹; the “Time (min) for 10% hydrolysis, Xa” value is given as 55 min. Also, at thrombin (IIa) (Table 7), the Km was 27.9 µM; the “kcat /Km, IIa” value was 1090 M⁻¹ s⁻¹; the “kcat, IIa” value was 0.03 s⁻¹. Moreover, the “Time (min) for 10% hydrolysis, IIa” value at thrombin (IIa) is on record as 23 min. In experiment [2], the Km was 810 µM; the “kcat /Km, APC” value is 2470 M⁻¹ s⁻¹; the “kcat, APC” value was 0.44 s⁻¹; the “Time (min) for 10% hydrolysis, APC” value is listed as 12 min.

For the molecule `Br.CC(C)NS(=O)(=O)c1cccc2cc(NC(=O)[C@H](CCCNC(=N)N)NC(=O)OCc3ccccc3)ccc12` [(N^α -Z)ArgANSNR1 R2; H; i-C3 H7], at urokinase (u-PA), the “Time (min) for 10% hydrolysis, u-PA” value is recorded as 1260 min. In addition, on plasmin (Plm), the “Time (min) for 5% hydrolysis, Plm” value is 1370 min. Also, the “hydrolysis, t-PA (symbol N.D.)” value in experiment [1] is “N.D. (Less than 5% hydrolysis after 24 hrs.)”. Also, on factor Xa, the Km was 102 µM; the “kcat /Km, Xa” value is 800 M⁻¹ s⁻¹; the “kcat, Xa” value is 0.08 s⁻¹; the “Time (min) for 10% hydrolysis, Xa” value is 36 min. On thrombin (IIa) (Table 7), the Km is 25 µM; the “kcat /Km, IIa” value was 1180 M⁻¹ s⁻¹; the “kcat, IIa” value is 0.03 s⁻¹. Also, on thrombin (IIa), the “Time (min) for 10% hydrolysis, IIa” value was 34 min. In experiment [2], the Km is 343 µM; the “kcat /Km, APC” value is 510 M⁻¹ s⁻¹; the “kcat, APC” value was 0.17 s⁻¹; the “Time (min) for 10% hydrolysis, APC” value was 50 min.

`Br.CC(C)CNS(=O)(=O)c1cccc2cc(NC(=O)[C@H](CCCNC(=N)N)NC(=O)OCc3ccccc3)ccc12` [(N^α -Z)ArgANSNR1 R2; H; i-C4 H9]: on urokinase (u-PA), the “Time (min) for 10% hydrolysis, u-PA” value came to 200 min. In addition, the “Time (min) for 5% hydrolysis, Plm” value at plasmin (Plm) turned out to be 1620 min. For the same molecule, the “hydrolysis, t-PA (symbol N.D.)” value in experiment [1] is given as “N.D. (Less than 5% hydrolysis after 24 hrs.)”. Moreover, on factor Xa, the Km is 86.5 µM; the “kcat /Km, Xa” value is 811 M⁻¹ s⁻¹; the “kcat, Xa” value was 0.07 s⁻¹; the “Time (min) for 10% hydrolysis, Xa” value was 33 min. Further, at thrombin (IIa) (Table 7), the Km was 35.3 µM; the “kcat /Km, IIa” value is 1420 M⁻¹ s⁻¹; the “kcat, IIa” value is 0.05 s⁻¹. The “Time (min) for 10% hydrolysis, IIa” value on thrombin (IIa) is listed as 25 min. Also, in experiment [2], the Km was 960 µM; the “kcat /Km, APC” value was 1670 M⁻¹ s⁻¹; the “kcat, APC” value was 1.6 s⁻¹; the “Time (min) for 10% hydrolysis, APC” value is given as 17 min.

For the molecule `Br.CC(C)(C)NS(=O)(=O)c1cccc2cc(NC(=O)[C@H](CCCNC(=N)N)NC(=O)OCc3ccccc3)ccc12` [(N^α -Z)ArgANSNR1 R2; H; t-C4 H9], the “Time (min) for 10% hydrolysis, u-PA” value on urokinase (u-PA) is recorded as 1260 min. For the same molecule, the “Time (min) for 5% hydrolysis, Plm” value at plasmin (Plm) is on record as 910 min. Further, the “hydrolysis, t-PA (symbol N.D.)” value in experiment [1] was “N.D. (Less than 5% hydrolysis after 24 hrs.)”. For the same molecule, at factor Xa, the Km is 114 µM; the “kcat /Km, Xa” value is 487 M⁻¹ s⁻¹; the “kcat, Xa” value is 0.06 s⁻¹; the “Time (min) for 10% hydrolysis, Xa” value is on record as 45 min. Further, at thrombin (IIa) (Table 7), the Km was 24 µM; the “kcat /Km, IIa” value is 930 M⁻¹ s⁻¹; the “kcat, IIa” value is 0.02 s⁻¹. In addition, the “Time (min) for 10% hydrolysis, IIa” value at thrombin (IIa) is 34 min. For the same molecule, in experiment [2], the Km was 738 µM; the “kcat /Km, APC” value was 540 M⁻¹ s⁻¹; the “kcat, APC” value was 0.4 s⁻¹; the “Time (min) for 10% hydrolysis, APC” value is recorded as 45 min.

Regarding `Br.N=C(N)NCCC[C@H](NC(=O)OCc1ccccc1)C(=O)Nc1ccc2c(S(=O)(=O)N3CCOCC3)cccc2c1` [(N^α -Z)ArgANSNR1 R2; morpholyl], the “hydrolysis, u-PA (symbol N.D.)” value on urokinase (u-PA) (after 24 hrs) was “N.D. (Less than 5% hydrolysis after 24 hrs.)”. In addition, on plasmin (Plm), the “Time (min) for 5% hydrolysis, Plm” value was 1220 min. The “hydrolysis, t-PA (symbol N.D.)” value in experiment [1] is on record as “N.D. (Less than 5% hydrolysis after 24 hrs.)”. On factor Xa, the Michaelis constant (Km) was 80 µM; the “kcat /Km, Xa” value was 625 M⁻¹ s⁻¹; the “kcat, Xa” value was 0.05 s⁻¹; the “Time (min) for 10% hydrolysis, Xa” value is on record as 45 min. Also, on thrombin (IIa) (Table 7), the “Hydrolysis kinetic constants, IIa (symbol b)” value is “b”. For the same molecule, the “Time (min) for 10% hydrolysis, IIa” value on thrombin (IIa) is 76 min. For the same molecule, in experiment [2], the “Hydrolysis kinetic constants, APC (symbol b)” value is “b” and the “Time (min) for 10% hydrolysis, APC” value is recorded as 171 min.

Broadly, the Km is the substrate concentration at which the rate is half of its maximum.

(Values after US5399487A, “6-peptidylamino-1-naphthalenesulfonamides useful as fluorogenic proteolytic enzyme substrates” (Haematologic Technologies, Inc., priority 1993, dated 1995).)
